What follows are compounds tested against T1, β-glucocerebrosidase (Homo sapiens, UniProt P04062, L483P) (assay: Enhancement of β-glucocerebrosidase activity measured in Gaucher disease fibroblasts (4-MU-β-D-glucopyranoside substrate, intact cells)). Conditions: GBA fibroblasts bearing L444P (GM08760A, homozygous p.L444P); compound at concentrations between 6 and 50 μM; 4 days incubation.
T1 construct: host or cells: human Gaucher disease patient fibroblasts GM08760A
T1 sequence (P04062 40-536 L483P): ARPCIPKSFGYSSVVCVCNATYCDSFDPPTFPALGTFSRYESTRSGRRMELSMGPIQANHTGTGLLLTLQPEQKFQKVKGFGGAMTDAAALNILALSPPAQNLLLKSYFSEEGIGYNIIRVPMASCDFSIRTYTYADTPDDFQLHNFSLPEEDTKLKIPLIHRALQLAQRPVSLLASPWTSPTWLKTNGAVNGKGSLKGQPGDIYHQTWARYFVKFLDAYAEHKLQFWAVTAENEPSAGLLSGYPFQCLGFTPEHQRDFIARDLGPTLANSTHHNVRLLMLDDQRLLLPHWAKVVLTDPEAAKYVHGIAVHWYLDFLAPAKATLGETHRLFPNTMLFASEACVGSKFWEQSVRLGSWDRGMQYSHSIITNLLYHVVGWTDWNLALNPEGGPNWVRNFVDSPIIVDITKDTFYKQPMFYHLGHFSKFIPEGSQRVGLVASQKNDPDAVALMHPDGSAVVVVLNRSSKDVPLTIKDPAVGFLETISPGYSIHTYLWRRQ
Assay type: cell-based
Design: key: Increase in comparison with non-treated of >2.0 fold is shown as A; Increase in comparison with non-treated of >1.7-2.0 fold is shown as B; Increase in comparison with non-treated of 1.2-1.7 fold is shown as C; D means that no increase compared with non-treated cells was detected in this method
Procedure, shortened: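 Patient fibroblasts homozygous for p.L444P (GM08760A), grown in DMEM/10% FBS and exposed to compound for 4 days. Intact cells then given 4-MU-β-D-glucopyranoside in 0.1 M acetate pH 4, 1 h, 37 °C; stopped at pH 10.7, 4-MU fluorescence ex 340/em 460. Value is fold increase over untreated cells; binned at 6–50 μM.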

| Structure (SMILES) | Range: increase in enzyme activity in comparison with non-treated cells (Enzyme activity assay for compounds of Examples 33-141) | Range: increase in enzyme activity in comparison with non-treated cells (Enzyme activity assay for exemplified compounds) |
| --- | --- | --- |
| Nc1cc(Nc2ccccc2Cl)nc(C(=O)NC2Cc3ccccc3C2)c1 [Example 101, 4-Amino-6-((2-chlorophenyl)amino)-N-(2,3-dihydro-1H-inden-2-yl)picolinamide] | B (Increase in comparison with non-treated of >1.7-2.0 fold is shown as B) |  |
| Nc1cc(Nc2ccccc2O)nc(C(=O)NC2Cc3ccccc3C2)n1 [Example 56, 4-Amino-N-(2,3-dihydro-1H-inden-2-yl)-6-((2-hydroxyphenyl)amino)pyrimidine-2-carboxamide] | B (Increase in comparison with non-treated of >1.7-2.0 fold is shown as B) |  |
| Nc1cc(Nc2ccccc2F)cc(C(=O)Nc2ccccc2)n1 [Example 74, 6-Amino-4-((2-fluorophenyl)amino)-N-phenylpicolinamide] | C (Increase in comparison with non-treated of 1.2-1.7 fold is shown as C) |  |
| Nc1cc(Nc2cc(F)cc(F)c2)nc(C(=O)NC2Cc3ccccc3C2)c1 [Example 109, 4-Amino-6-((3,5-difluorophenyl)amino)-N-(2,3-dihydro-1H-inden-2-yl)picolinamide] | A (Increase in comparison with non-treated of >2.0 fold is shown as A) |  |
| Cc1ccc(Nc2cc(N)nc(C(=O)Nc3ccccc3)c2)c(O)c1 [Example 77, 6-Amino-4-((2-hydroxy-4-methylphenyl)amino)-N-phenylpicolinamide] | C (Increase in comparison with non-treated of 1.2-1.7 fold is shown as C) |  |
| Nc1cc(Nc2ccccc2O)nc(C(=O)N2CCN(c3ccccc3)CC2)c1 [Example 88, (4-Amino-6-((2-hydroxyphenyl)amino)pyridin-2-yl)(4-phenylpiperazin-1-yl)methanone] | C (Increase in comparison with non-treated of 1.2-1.7 fold is shown as C) |  |
| Cc1cccc(Nc2cc(N)cc(C(=O)NC3Cc4ccccc4C3)n2)c1O [Example 91, 4-Amino-N-(2,3-dihydro-1H-inden-2-yl)-6-((2-hydroxy-3-methylphenyl)amino)picolinamide] | B (Increase in comparison with non-treated of >1.7-2.0 fold is shown as B) |  |
| CN(Cc1ccccc1)C(=O)c1nc(N)nc(Nc2cccc(Br)c2)n1 [Example 17, 4-Amino-N-benzyl-6-((3-bromophenyl)amino)-N-methyl-1,3,5-triazine-2-carboxamide] |  | D |
| CN(C(=O)c1cc(Nc2ccccc2O)cc(N)n1)c1ccccc1 [Example 128, 6-Amino-4-((2-hydroxyphenyl)amino)-N-methyl-N-phenylpicolinamide] | C (Increase in comparison with non-treated of 1.2-1.7 fold is shown as C) |  |
| CN(C(=O)c1nc(N)nc(Nc2cccc(Br)c2)n1)c1ccccc1 [Example 18, 4-Amino-6-((3-bromophenyl)amino)-N-methyl-N-phenyl-1,3,5-triazine-2-carboxamide] |  | D |
| Cc1ccc(Nc2nc(N)cc(C(=O)N3CCN(c4ccccc4)CC3)n2)cc1 [Example 3, (6-Amino-2-(p-tolylamino)pyrimidin-4-yl)(4-phenylpiperazin-1-yl)methanone] |  | C (Increase in comparison with non-treated of 1.2-1.7 fold is shown as C) |
| Cl.Nc1cc(Nc2cccc(F)c2)nc(C(=O)Nc2ccccc2)c1 [Example 134, 4-Amino-6-((3-fluorophenyl)amino)-N-phenylpicolinamide hydrochloride] | A (Increase in comparison with non-treated of >2.0 fold is shown as A) |  |
| Nc1cc(C(=O)Nc2ccccc2)cc(Nc2ccccc2O)n1 [Example 46, 2-Amino-6-((2-hydroxyphenyl)amino)-N-phenylisonicotinamide] | B (Increase in comparison with non-treated of >1.7-2.0 fold is shown as B) |  |
| Nc1cc(Nc2ccccc2O)cc(C(=O)N2Cc3ccccc3C2)n1 [Example 58, (6-Amino-4-((2-hydroxyphenyl)amino)pyridin-2-yl)(isoindolin-2-yl)methanone] | B (Increase in comparison with non-treated of >1.7-2.0 fold is shown as B) |  |
| Nc1cc(Nc2cccc(O)c2)nc(C(=O)NC2Cc3ccccc3C2)c1 [Example 112, 4-Amino-N-(2,3-dihydro-1H-inden-2-yl)-6-((3-hydroxyphenyl)amino)picolinamide] | A (Increase in comparison with non-treated of >2.0 fold is shown as A) |  |
| Cc1cccc(Nc2cc(N)cc(C(=O)NC3Cc4ccccc4C3)n2)c1F [Example 90, 4-Amino-N-(2,3-dihydro-1H-inden-2-yl)-6-((2-fluoro-3-methylphenyl)amino)picolinamide] | C (Increase in comparison with non-treated of 1.2-1.7 fold is shown as C) |  |
| Cc1ccc(Nc2nc(N)cc(C(=O)N(C)c3ccccc3)n2)cc1 [Example 6, 6-Amino-N-methyl-N-phenyl-2-(p-tolylamino)pyrimidine-4-carboxamide] |  | D |
| Nc1cc(C(=O)NC2CCc3ccccc3C2)nc(Nc2ccccc2O)n1 (stereo not drawn) [Example 12, 6-Amino-2-((2-hydroxyphenyl)amino)-N-(1,2,3,4-tetrahydronaphthalen-2-yl)pyrimidine-4-carboxamide] |  | B (Increase in comparison with non-treated of >1.7-2.0 fold is shown as B) |
| Nc1cc(Nc2ccccc2O)nc(C(=O)N2CCN(c3ccccc3)CC2)n1 [Example 125, (4-Amino-6-((2-hydroxyphenyl)amino)pyrimidin-2-yl)(4-phenylpiperazin-1-yl)methanone] | C (Increase in comparison with non-treated of 1.2-1.7 fold is shown as C) |  |
| Nc1cc(Nc2ccccc2F)nc(C(=O)NC2Cc3ccccc3C2)c1 [Example 71, 4-Amino-N-(2,3-dihydro-1H-inden-2-yl)-6-((2-fluorophenyl)amino)picolinamide] | B (Increase in comparison with non-treated of >1.7-2.0 fold is shown as B) |  |
| Cc1ccc(Nc2nc(N)cc(C(=O)NC3CCc4ccccc4C3)n2)cc1 (stereo not drawn) [Example 22, 6-Amino-N-(1,2,3,4-tetrahydronaphthalen-2-yl)-2-(p-tolylamino)pyrimidine-4-carboxamide] |  | A (Increase in comparison with non-treated of >2.0 fold is shown as A) |
| Nc1cc(Nc2ccccc2F)nc(C(=O)Nc2ccccc2)c1 [Example 75, 4-Amino-6-((2-fluorophenyl)amino)-N-phenylpicolinamide] | C (Increase in comparison with non-treated of 1.2-1.7 fold is shown as C) |  |
| CN(C(=O)c1cc(N)cc(Nc2ccccc2O)n1)c1ccccc1 [Example 110, 4-Amino-6-((2-hydroxyphenyl)amino)-N-methyl-N-phenylpicolinamide] | C (Increase in comparison with non-treated of 1.2-1.7 fold is shown as C) |  |
| COc1ccc(Nc2nc(N)nc3c2CCN(Cc2ccccc2)C3)cc1 [Example 26, 7-Benzyl-N4-(4-methoxyphenyl)-5,6,7,8-tetrahydropyrido[3,4-d]pyrimidine-2,4-diamine] |  | C (Increase in comparison with non-treated of 1.2-1.7 fold is shown as C) |
| Cc1ccc(Nc2nc(N)cc(C(=O)N(C)Cc3ccccc3)n2)cc1 [Example 21, 6-Amino-N-benzyl-N-methyl-2-(p-tolylamino)pyrimidine-4-carboxamide] |  | C (Increase in comparison with non-treated of 1.2-1.7 fold is shown as C) |
| Nc1cc(Nc2cccc3c2OCO3)nc(C(=O)Nc2ccccc2)c1 [Example 94, 4-Amino-6-(benzo[d][1,3]dioxol-4-ylamino)-N-phenylpicolinamide] | B (Increase in comparison with non-treated of >1.7-2.0 fold is shown as B) |  |
| Nc1cc(Nc2ccccc2O)cc(C(=O)NC2CCc3ccccc3C2)n1 (stereo not drawn) [Example 127, 6-Amino-4-((2-hydroxyphenyl)amino)-N-(1,2,3,4-tetrahydronaphthalen-2-yl)picolinamide] | B (Increase in comparison with non-treated of >1.7-2.0 fold is shown as B) |  |

Source: patent US12661342B2, “Heteroaryl compounds and therapeutic uses thereof in conditions associated with the alteration of the activity of beta-glucocerebrosidase” (GT GAIN THERAPEUTICS SA, priority 2019, dated 2026)
